Measured values published in article PMC3563528, “Ultrashort Cationic Lipopeptides and Lipopeptoids Selectively Induce Cytokine Production in Macrophages” (PLoS ONE, 2013).
“And” between values parts separate entries of the source, which are not always exact repeats. Identical values can stand only once. Marks after values point to notes of the source that are not given here.

How the values were obtained:
S.aureus ATCC 29213 = system: S.aureus ATCC 29213; parameters: method as in earlier work; conditions: data from previous studies converted into µM; cited from earlier work
[1] = system: MRSE (CZ >32) CAN-ICU 61589; parameters: method as in earlier work; conditions: data from previous studies converted into µM; cited from earlier work
MSSE 81388 CANWARD 2008 = system: MSSE 81388 CANWARD 2008; parameters: method as in earlier work; conditions: data from previous studies converted into µM; cited from earlier work
MRSA ATCC 33592 = system: MRSA ATCC 33592; parameters: method as in earlier work; conditions: data from previous studies converted into µM; cited from earlier work
[2] = system: human macrophage-like THP-1 cells; experiment: IL-8 production by ELISA in TC supernatants; type: cell-based; conditions: 24 h exposure; for IL-8 induction (in words): concentrations tested up to 100 µM; for IL-8 production: mean ± sem
Method: (§1) Prior to testing, human monocytic THP-1 cells were differentiated to plastic-adherent macrophage-like THP-1 cells as previously described. The cells were rested for twenty-four hours, then exposed to the amphiphiles of interest for twenty-four hours. Cell free TC supernatants were monitored for the production of chemokines Groα and IL-8 by ELISA as previously described, [34]. The constitutive background level of chemokine Groα was 6.6±1.8 pg/ml, and that of IL-8 was 1.7±0.16 ng/ml. Encouragingly, the majority of compounds were strong inducers of both IL-8 and Groα and increased chemokine levels above background (Figure 2). […] The three amphiphiles with a LysLysLys peptide sequence and lipid tail at least sixteen carbons in length, 5–7, were especially strong inducers of IL-8, increasing the concentration to 5–8 ng/mL (p<0.05) above control at 10 µM of lipopeptide, and up to 13 ng/mL (p<0.01) above control at 50 µM (Figure 2). These amphiphiles compared favourably to LL-37 (1.3 ng/mL of IL-8 above control at 10 µM), despite their brief peptide sequence. […] All lipopeptides with lipid tails shorter than sixteen carbons were unable to induce either IL-8 or Groα at concentrations up to 100 µM (Figure 2, Figure S1).
(§2) ELISA results were obtained from two biological replicates with two technical replicates each and statistical analyses was performed using Student paired t-test. Error bars in the graphs represents standard error of the mean, and a p-value of less that 0.05 was considered to be statistically significant.

[3] = system: human macrophage-like THP-1 cells; experiment: Groα production by ELISA in TC supernatants; type: cell-based; conditions: 24 h exposure; for Groα induction (in words): concentrations tested up to 100 µM
Method: as §1, §2

[4] = system: human macrophage-like THP-1 cells; experiment: TNF-α production by ELISA in TC supernatants; type: cell-based; conditions: any concentration tested, at or below 100 µM, 24 h exposure
Method: as §2
Supplementary file pone.0054280.s002.tiff: Figure S2 TNF-α production by human macrophage-like THP-1 cells following incubation with amphiphiles 1–21. TC supernatants were monitored for cytokine production via ELISA, and results are reported in pg/mL. All studies were performed in two independent biological replicates with two technical replicates each. (TIFF) Click here for additional data file.

[5] = system: human macrophage-like THP-1 cells; experiment: IL-1β production by ELISA in TC supernatants; type: cell-based; conditions: 24 h exposure
Method: Figure 3 IL-1β production. Human macrophage-like THP-1 cells were exposed to amphiphiles 4–11 and 14–21, for twenty-four hours. TC supernatants were monitored for IL-1β by ELISA, with results shown in pg/mL. Studies were performed in two independent biological replicates with two technical replicate each, with the data here presented as the mean plus sem. Inset: Expanded results for the negative control and amphiphiles 4–7 at 5 µM and 10 µM.
as §2

Gram positive strains = conditions: in vitro; cited from earlier work
Description: We have shown that ultrashort lipopeptides and lipopeptoids are able to induce selective cytokine production in human macrophages, despite little structural similarity to any known host defence peptide or CAMP.

[6] = 50 µM amphiphile, two biological replicates with two technical replicates each
[7] = 50 µM amphiphile, mean ± sem, two biological replicates with two technical replicates each

Substance | Antimicrobial activity (MIC) (S.aureus ATCC 29213) | Antimicrobial activity (MIC) [1] [µM] | Antimicrobial activity (MIC) (MSSE 81388 CANWARD 2008) [µM] | Antimicrobial activity (MIC) (MRSA ATCC 33592) [µM] | IL-8 induction (in words) [2] | Groα induction (in words) [3] | further results
C11-LysLysLys-NH2 [compound 4] | 561^a μM | 281 | 281 | >561 | – | – | –
C11-NLysGlyNLys-NH2 [compound 12] | – | – | – | – | inactive | inactive | –
C16-LysGlyLys-NH2 [compound 1] | – | – | – | – | – | – | IL-8 above control [2, 6]: 0.2 ng/mL
C16-LysLysLys-NH2 [compound 5] | 8.1 µM | <0.25 | <0.25 | 4.1 | – | – | IL-8 production [2, 6]: 7.7 ± 0.6 ng/mL
C16-NLysGlyNLys-NH2 [compound 13] | – | – | – | – | inactive | inactive | –
C16OH-HarHarHar -NH2 [compound 10] | – | – | – | – | – | – | IL-8 production [2, 6]: up to 10 ng/mL
C16OH-LysGlyLys-NH2 [compound 2] | – | – | – | – | failed to significantly increase IL-8 production | – | –
C16OH-LysLysLys-NH2 [compound 6] | 128 µM | 128 | 128 | 128 | – | – | IL-8 production [2, 6]: 12.5 ± 0.5 ng/mL; Groα production [3, 7]: 670 pg/mL
C16OH-NHarNHarNHar-NH2 [compound 20] | – | – | – | – | moderate inducers | moderate inducers | TNF-α induction (in words) [4]: did not induce; IL-1β induction (in words) [5]: did not induce
C16OH-NLysNLysNLys-NH2 [compound 16] | – | – | – | – | moderate inducers | moderate inducers | TNF-α induction (in words) [4]: did not induce; IL-1β induction (in words) [5]: did not induce
C20-HarHarHar-NH2 [compound 11] | – | – | – | – | – | – | IL-8 production [2, 6]: up to 10 ng/mL
C20-LysGlyLys-NH2 [compound 3] | – | – | – | – | failed to significantly increase IL-8 production | – | –
C20-LysLysLys-NH2 [compound 7] | 7.7 µM | 7.7 | 7.7 | 7.7 | – | – | Increase of IL-1β concentration ([5]; moving from 10 µM to 50 µM): over forty-fold
C20-NHarNHarNHar-NH2 [compound 21] | 6.9 µM | 6.9 | 6.9 | 14 | moderate inducer | strongest inducer | MIC (Gram positive strains): ≤ 16 µg/mL; IL-8 production ([2]; 50 and 100 µM amphiphile): 6 ± 0.8 ng/mL; Groα production [3, 7]: 996 ± 4 pg/mL and 1000 pg/mL; Groα production ([3]; 100 µM amphiphile): 200 pg/mL
LLGDFFRKSKEKIGKEFKRIVQRIKDFLRNLVPRTES-OH [LL-37, human cathelicidin LL-37, natural host defence peptide, positive control, reference compound] | – | – | – | – | – | – | IL-8 above control ([2]; 10 µM amphiphile, two biological replicates with two technical replicates each): 1.3 ng/mL; Groα production ([3]; 2.5 µM): 800 pg/mL
